Measured values taken from ChEMBL document CHEMBL3865849, “Development of N-(4-Phenoxyphenyl)benzenesulfonamide Derivatives as Novel Nonsteroidal Progesterone Receptor Antagonists” (ACS Med Chem Lett, 2016).

Target: Androgen receptor (Mus musculus) (UniProt P19091)
Experiment: Antagonist activity at androgen receptor in mouse SC-3 cells assessed as inhibition of DHT-induced cell growth at 1 uM co-treated with DHT measured after 3 days by CCK8 assay

Androgen receptor (Mus musculus), sequence (P19091 whole entry, looked up): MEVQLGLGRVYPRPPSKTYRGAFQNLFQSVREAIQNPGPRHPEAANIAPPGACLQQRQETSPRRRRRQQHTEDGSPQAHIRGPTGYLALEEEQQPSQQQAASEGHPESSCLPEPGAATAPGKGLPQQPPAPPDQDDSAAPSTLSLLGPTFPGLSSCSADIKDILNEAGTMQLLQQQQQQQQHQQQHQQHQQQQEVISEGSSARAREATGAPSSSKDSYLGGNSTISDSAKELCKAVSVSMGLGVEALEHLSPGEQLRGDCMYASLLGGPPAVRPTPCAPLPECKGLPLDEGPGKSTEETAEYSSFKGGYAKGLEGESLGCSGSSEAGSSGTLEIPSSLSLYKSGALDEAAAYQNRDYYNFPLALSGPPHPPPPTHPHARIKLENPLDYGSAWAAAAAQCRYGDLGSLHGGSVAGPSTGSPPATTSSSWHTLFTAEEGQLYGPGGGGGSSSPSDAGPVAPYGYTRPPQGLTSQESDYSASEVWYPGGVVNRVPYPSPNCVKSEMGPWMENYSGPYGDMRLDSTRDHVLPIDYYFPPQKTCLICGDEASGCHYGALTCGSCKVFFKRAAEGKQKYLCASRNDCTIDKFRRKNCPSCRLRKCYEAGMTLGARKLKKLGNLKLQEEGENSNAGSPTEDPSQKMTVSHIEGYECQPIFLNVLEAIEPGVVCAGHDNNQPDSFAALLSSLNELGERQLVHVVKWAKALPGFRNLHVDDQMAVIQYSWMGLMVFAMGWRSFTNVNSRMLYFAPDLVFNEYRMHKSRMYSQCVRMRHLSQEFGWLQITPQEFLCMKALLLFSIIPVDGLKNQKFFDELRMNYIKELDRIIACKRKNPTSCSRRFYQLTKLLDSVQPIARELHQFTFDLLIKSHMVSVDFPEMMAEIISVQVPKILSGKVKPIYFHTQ

In the case of `O=S(=O)(Nc1ccc(Oc2ccccc2)cc1)c1cccc(Cl)c1`, the inhibition is reported as 8.4%.
